Test results reported in PubChem BioAssay (NCI).
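Results reflect a 48-hour exposure of cells in 96-well plates to compound at five concentrations. GI50: concentration for 50% inhibition of growth. TGI: total growth inhibition.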

Legend:
Assay in all cases: NCI anticancer screen, dose series, 48 h
[1] = system: MOLT-4 leukemia
[2] = system: OVCAR-5 ovarian
[3] = system: K-562 leukemia
[4] = system: SNB-78 CNS
[5] = system: DMS 273 small cell lung
[6] = system: HL-60(TB) leukemia
[7] = system: OVCAR-8 ovarian
[8] = system: U251 CNS
[9] = system: BT-549 breast
[10] = system: DU-145 prostate
[11] = system: M19-MEL melanoma
[12] = system: DMS 114 small cell lung

Structure (SMILES) | TGI [1] [µM] | TGI [2] [µM] | TGI [3] [µM] | TGI [4] [µM] | TGI [5] [µM] | TGI [6] [µM] | TGI [7] [µM] | TGI [8] [µM] | GI50 [1] [µM] | GI50 [2] [µM] | GI50 [3] [µM] | GI50 [6] [µM] | GI50 [7] [µM] | GI50 [9] [µM] | TGI [9] [µM] | GI50 [10] [µM] | TGI [10] [µM] | GI50 [8] [µM] | TGI [11] [µM] | TGI [12] [µM]
COC(=O)CCC(=O)C(CC(=O)OC)C(=O)CCC(=O)NCCc1ccccc1 (stereo not drawn) | > 100 | > 100 | > 100 | > 100 | > 100 | > 100 | > 100 | > 100 |  |  |  |  |  |  |  |  |  |  |  | 
CN(CCNc1ccc(C(=N)N)cc1)c1ccc(C(=N)N)cc1 | > 100 | > 100 | > 100 |  |  | > 100 | > 100 | > 100 | > 100 | > 100 | 27.6 | 49.4 | 50 | 13.8 | 38.4 | 19.2 | > 100 | 30.6 |  | 
COc1ncnn2ccc(-c3cnc4nc(C)n(Cc5nnc(C(C)F)o5)c4c3)c12 (stereo not drawn) | > 20.8 |  | > 100 |  |  |  | > 100 | > 100 | 0.231 | 0.343 | 0.163 | 0.367 | 0.245 | 0.0585 | 1.61 | 0.288 | > 100 | 0.249 |  | 
NNC(=S)N/N=C/c1ccccn1 | > 100 | > 100 | > 100 |  |  | 5.92 | > 100 | > 100 | 3.34 | 3.68 | 2.64 | 1.74 | 2.28 | 4.29 | > 100 | 1.85 | > 100 | 1.99 |  | 
S=C1NC(c2ccccc2)=NC(Cc2ccccc2)(c2ccccc2)N1c1ccccc1 (stereo not drawn) | > 100 | > 100 | > 100 | > 100 |  | > 100 | > 100 |  |  |  |  |  |  |  |  |  |  |  | > 100 | > 100
CN1C[C@@H]2CC(=O)CC[C@@H]2C[C@H]1C#N | > 100 | > 100 | > 100 |  |  | > 100 | > 100 |  |  |  |  |  |  |  |  |  |  |  |  | > 100
Cc1cc2c(=O)cc(-c3ccc(Cl)cc3Cl)oc2c(C(=O)O)c1C | > 100 | > 100 | > 100 | > 100 |  |  | > 100 | > 100 |  |  |  |  |  |  |  |  |  |  |  | > 100
Oc1c(CCl)cc(Cl)cc1Cc1cc(Cl)cc(Cc2cc(Cl)cc(CCl)c2O)c1O | 13.4 | 38.7 | 13.4 |  |  | 8.13 | 30.7 | 21.1 | 2.67 | 12.2 | 1.99 | 2.48 | 3.62 | 2.71 | 11.5 | 4.28 | 37.1 | 2.83 |  | 
COc1ccc(/C=C/C(=O)c2ccc(B(O)O)cc2)cc1O | > 100 | 69.5 | > 100 |  |  | 44.2 | > 77.9 | 27 | 10.9 | 21.5 | 2.86 | 2.52 | 28.3 | 6.8 | 20.1 | 6.21 | 28.9 | 9.37 |  | 
Cc1cc(C)c2c(=O)cc(-c3ccc(F)cc3)[nH]c2n1 | > 100 | > 100 | > 100 |  |  | 37.4 | > 100 | > 100 |  |  |  | 15.5 |  |  | > 100 |  | > 100 | 95.1 |  | 
COC(=O)c1oc([N+](=O)[O-])c(-c2ccccc2)c1-c1ccccc1 | > 100 | > 100 | > 100 | > 100 | > 100 |  | > 100 | > 100 |  |  |  |  |  |  |  |  |  |  | > 100 | > 100
Cn1cnc([N+](=O)[O-])c1Sc1nccn1-c1ccccc1 | 74.1 | > 100 | > 100 | > 100 | > 100 |  | > 100 | > 100 |  |  |  |  |  |  |  |  |  |  | > 100 | 91.2
CC(=O)N[C@@H](Cc1ccc(OP(=O)(O)O)cc1)C(=O)N[C@H]1CCC(=O)N2CCC[C@@H](C(=O)NCc3cccc4ccccc34)N2C1=O | > 25 | > 25 | > 25 |  |  | > 25 | > 25 | > 25 | > 25 | > 25 | > 25 | > 25 | > 25 | > 25 | > 25 | > 25 | > 25 | > 25 |  | 
COC1OC(CO)C(O)C(NC(=O)N(C)N=O)C1O (stereo not drawn) | > 100 |  | > 100 | > 100 | > 100 | > 100 | > 100 | > 100 |  |  |  |  |  |  |  |  |  |  | > 100 | > 100
O=C1C2=C(c3ccccc31)C(c1ccccc1Cl)NC(=S)N2 (stereo not drawn) | > 100 | > 100 | > 100 |  | > 100 | > 100 | > 100 | > 100 |  |  |  |  |  |  |  |  |  |  | > 100 | 
O=C(NCCCNc1cc(-c2cn(-c3ccccc3)nc2-c2cccc(O)c2)ccn1)c1ccc(F)cc1 | 14 | 28.6 | > 100 |  |  | 6.49 | 21.2 | 10.9 | 2.36 | 2.62 | 1.93 | 2.46 | 4.01 | 1.59 | 6.31 | 4.63 | 53.4 | 2.96 |  | 
CC(=O)OC1C(COC(N)=O)OC(n2c(-c3ccc(C)cc3)cc(-c3ccccc3)c(C#N)c2=O)C(OC(C)=O)C1OC(C)=O (stereo not drawn) | > 100 | > 100 | > 100 | > 100 | > 100 |  | > 100 | > 100 |  |  |  |  |  |  |  |  |  |  | > 100 | 
O=C(/C=C/c1cccnc1)c1ccccc1 | 20.2 | 33.3 | 8.53 |  |  | 28.8 | 25.9 | 15.1 | 4.32 | 14.7 | 2.85 | 7.02 | 12.2 | 16 | 29.9 | 13.9 | 26.9 | 3.85 |  | 
